Laboratory results published in patent US9233989B2, “Sila analogs of oxazolidinone derivatives and synthesis thereof” (Council of Scientific & Industrial Research, priority 2011, dated 2016).
In brackets after ≈: the same amount, converted by molar mass.

Legend:
MRSA DB 00026 = assay: MIC by microbroth dilution method; assay type: cell-based, S. aureus
MRSE ATCC 35983 = assay: MIC by microbroth dilution method; assay type: cell-based, S. epidermidis
[1] = system: E.faecalis ATCC 51299(VRE&HLAR); assay: MIC by microbroth dilution method; assay type: cell-based
S.epidermidis ATCC 14990 = assay: MIC by microbroth dilution method; assay type: cell-based
E.faecium ATCC 35667 = assay: MIC by microbroth dilution method; assay type: cell-based
E.coli 7632 = assay: MIC by microbroth dilution method; assay type: cell-based
[2] = system: S.aureus ATCC 49775 PVL + ve; assay type: cell-based
S.epidermidis ATCC 12228 = assay: MIC by microbroth dilution method; assay type: cell-based
MRSA 252 BAA 1720 = assay: MIC by microbroth dilution method; assay type: cell-based, S. aureus
E.faecalis SP 346 VRE = assay: MIC by microbroth dilution method; assay type: cell-based
S.aureus2 (PVL + ve) = assay type: cell-based, S. aureus
MRSA ATCC 43300 = assay: MIC by microbroth dilution method; assay type: cell-based, S. aureus
S.aureus ATCC 29213 = assay: MIC by microbroth dilution method; assay type: cell-based
MRSA 0-2657 = assay: MIC by microbroth dilution method; assay type: cell-based, S. aureus
E.faecalis ATCC 29212 = assay: MIC by microbroth dilution method; assay type: cell-based
[3] = system: S.aureus 13709 LNZ mutant; assay type: cell-based
[4] = system: S.aureus ATCC 700699 Mu50; assay: MIC by microbroth dilution method; assay type: cell-based
MRSA ATCC BAA 39 = assay: MIC by microbroth dilution method; assay type: cell-based, S. aureus
E.faecium 06076 VRE = assay: MIC by microbroth dilution method; assay type: cell-based
E.faecium 6A VRE = assay: MIC by microbroth dilution method; assay type: cell-based
E.faecium ATCC 49224 = assay: MIC by microbroth dilution method; assay type: cell-based
E.faecalis ATCC 19433 = assay: MIC by microbroth dilution method; assay type: cell-based
[5] = system: Mycobacterium tuberculosis H37Rv; assay: Anti-TB activity, colorimetric resazurin microtiter assay; assay type: cell-based; conditions: Mycobacterium tuberculosis, H37RV, read-out: MIC, Minimum Inhibitory Concentration (90%)
E.faecium ATCC 19434 = assay: MIC by microbroth dilution method; assay type: cell-based
S.aureus DB00026 = assay: MIC by microbroth dilution method; assay type: cell-based
[6] = system: S.aureus ATCC Newman 25904; assay: MIC by microbroth dilution method; assay type: cell-based
E.faecium 134 VRE = assay: MIC by microbroth dilution method; assay type: cell-based
MRSE ATCC 35984 = assay: MIC by microbroth dilution method; assay type: cell-based, S. epidermidis
[7] = system: S.aureus ATCC 13709 Smith; assay: MIC by microbroth dilution method; assay type: cell-based
E.faecium ATCC 3567 = assay: MIC by microbroth dilution method; assay type: cell-based
MRSA 562 = assay: MIC by microbroth dilution method; assay type: cell-based, S. aureus
S.epidermis St 358 = assay: MIC by microbroth dilution method; assay type: cell-based, S. epidermidis

Row | Structure (SMILES) | MIC (MRSA DB 00026) [µg/mL] | MIC (MRSE ATCC 35983) [µg/mL] | MIC [1] [µg/mL] | MIC (S.epidermidis ATCC 14990) [µg/mL] | MIC (E.faecium ATCC 35667) [µg/mL] | MIC (E.coli 7632) [µg/mL] | MIC [2] [µg/mL] | MIC (S.epidermidis ATCC 12228) [µg/mL] | MIC (MRSA 252 BAA 1720) [µg/mL] | MIC (E.faecalis SP 346 VRE) [µg/mL] | MIC (S.aureus2 (PVL + ve)) [µg/mL] | MIC (MRSA ATCC 43300) [µg/mL] | MIC (S.aureus ATCC 29213) [µg/mL] | MIC (MRSA 0-2657) [µg/mL] | MIC (E.faecalis ATCC 29212) [µg/mL] | MIC [3] [µg/mL] | MIC [4] [µg/mL] | MIC (MRSA ATCC BAA 39) [µg/mL] | MIC (E.faecium 06076 VRE) [µg/mL] | MIC (E.faecium 6A VRE) [µg/mL] | further results
1 | C[Si]1(C)CCN(c2ccc(N3C[C@H](CO)OC3=O)cc2F)CC1 [NDS-10059, (R)-3-(4-(4,4-dimethyl-1,4-azasilinan-1-yl)-3-fluorophenyl)-5-(hydroxymethyl)oxazolidin-2-one] | > 32 | > 32 | 32 (≈ 94.5 µM) | 32 (≈ 94.5 µM) | > 32 | 32 (≈ 94.5 µM) | 32 (≈ 94.5 µM) | > 32 | > 32 | 32 (≈ 94.5 µM) | > 32 | > 32 | > 32 | 32 (≈ 94.5 µM) | 32 (≈ 94.5 µM) | > 32 | > 32 | > 32 | > 32 | > 32 | MIC (E.faecium ATCC 49224): > 32 µg/mL; MIC (E.faecalis ATCC 19433): > 32 µg/mL; MIC [5]: 100 µg/mL (≈ 295 µM); MIC (E.faecium ATCC 19434): 32 µg/mL (≈ 94.5 µM); MIC (S.aureus DB00026): > 32 µg/mL; MIC [6]: > 32 µg/mL; MIC (E.faecium 134 VRE): 32 µg/mL (≈ 94.5 µM); MIC (MRSE ATCC 35984): 32 µg/mL (≈ 94.5 µM); MIC [7]: > 32 µg/mL; MIC (E.faecium ATCC 3567): > 32 µg/mL; MIC (MRSA 562): > 32 µg/mL; MIC (S.epidermis St 358): 32 µg/mL (≈ 94.5 µM)
2 | C[Si]1(c2ccccc2)CCN(c2c(F)cc(N3C[C@H](CN)OC3=O)cc2F)CC1 [NDS-10070, (S)-5-(aminomethyl)-3-(3,5-difluoro-4-(4-methyl-4-phenyl-1,4-azasilinan-1-yl)phenyl)oxazolidin-2-one] | > 32 | > 32 | 32 (≈ 76.6 µM) | > 32 | 32 (≈ 76.6 µM) | 32 (≈ 76.6 µM) | > 32 | > 32 | > 32 | > 32 | > 32 | > 32 | > 32 | > 32 | 32 (≈ 76.6 µM) | > 32 | > 32 | > 32 | > 32 | > 32 | MIC (E.faecium ATCC 49224): 32 µg/mL (≈ 76.6 µM); MIC (E.faecalis ATCC 19433): 32 µg/mL (≈ 76.6 µM); MIC [5]: 50 µg/mL (≈ 120 µM); MIC (E.faecium ATCC 19434): 32 µg/mL (≈ 76.6 µM); MIC (S.aureus DB00026): > 32 µg/mL; MIC [6]: > 32 µg/mL; MIC (E.faecium 134 VRE): > 32 µg/mL; MIC (MRSE ATCC 35984): 32 µg/mL (≈ 76.6 µM); MIC [7]: > 32 µg/mL; MIC (E.faecium ATCC 3567): > 32 µg/mL; MIC (MRSA 562): 32 µg/mL (≈ 76.6 µM); MIC (S.epidermis St 358): > 32 µg/mL
3 | C[Si]1(C)CCN(c2ccc(N3C[C@H](Cn4ccnn4)OC3=O)cc2F)CC1 [NDS-10060, (R)-5-((1H-1,2,3-triazol-1-yl)methyl)-3-(4-(4,4-dimethyl-1,4-azasilinan-1-yl)-3-fluorophenyl)oxazolidin-2-one] | 16 (≈ 41.1 µM) | 32 (≈ 82.2 µM) | 16 (≈ 41.1 µM) | 8 (≈ 20.5 µM) | 32 (≈ 82.2 µM) | 16 (≈ 41.1 µM) | 16 (≈ 41.1 µM) | > 32 | 32 (≈ 82.2 µM) | 16 (≈ 41.1 µM) | 16 (≈ 41.1 µM) | 32 (≈ 82.2 µM) | 32 (≈ 82.2 µM) | 16 (≈ 41.1 µM) | 8 (≈ 20.5 µM) | 32 (≈ 82.2 µM) | 32 (≈ 82.2 µM) | 16 (≈ 41.1 µM) | 32 (≈ 82.2 µM) | 32 (≈ 82.2 µM) | MIC (E.faecium ATCC 49224): 32 µg/mL (≈ 82.2 µM); MIC (E.faecalis ATCC 19433): 16 µg/mL (≈ 41.1 µM); MIC [5]: 50 µg/mL (≈ 128 µM); MIC (E.faecium ATCC 19434): 32 µg/mL (≈ 82.2 µM); MIC (S.aureus DB00026): 16 µg/mL (≈ 41.1 µM); MIC [6]: 16 µg/mL (≈ 41.1 µM); MIC (E.faecium 134 VRE): 16 µg/mL (≈ 41.1 µM); MIC (MRSE ATCC 35984): 16 µg/mL (≈ 41.1 µM); MIC [7]: 16 µg/mL (≈ 41.1 µM); MIC (E.faecium ATCC 3567): > 32 µg/mL; MIC (MRSA 562): 16 µg/mL (≈ 41.1 µM); MIC (S.epidermis St 358): 16 µg/mL (≈ 41.1 µM)
4 | CC(=O)NC[C@H]1CN(c2cc(F)c(N3CC[Si](C)(C)CC3)c(F)c2)C(=O)O1 [NDS-10028, (S)—N-((3-(4-(4,4-dimethyl-1,4-azasilinan-1-yl)-3,5-difluorophenyl)-2-oxooxazolidin-5-yl)methyl)acetamide] | 8 (≈ 20.1 µM) | 4 (≈ 10.1 µM) | 8 (≈ 20.1 µM) | 4 (≈ 10.1 µM) | 8 (≈ 20.1 µM) | > 32 | 16 (≈ 40.3 µM) | 4 (≈ 10.1 µM) | > 32 | 8 (≈ 20.1 µM) | > 32 | > 32 | > 16 | 8 (≈ 20.1 µM) | 8 (≈ 20.1 µM) | > 16 | 8 (≈ 20.1 µM) | 8 (≈ 20.1 µM) | 8 (≈ 20.1 µM) | 4 (≈ 10.1 µM) | MIC (E.faecium ATCC 49224): 8 µg/mL (≈ 20.1 µM); MIC (E.faecalis ATCC 19433): 16 µg/mL (≈ 40.3 µM); MIC [5]: > 50 µg/mL; MIC (E.faecium ATCC 19434): 8 µg/mL (≈ 20.1 µM); MIC (S.aureus DB00026): > 32 µg/mL; MIC [6]: > 32 µg/mL; MIC (E.faecium 134 VRE): 8 µg/mL (≈ 20.1 µM); MIC (MRSE ATCC 35984): 8 µg/mL (≈ 20.1 µM); MIC [7]: 8 µg/mL (≈ 20.1 µM); MIC (E.faecium ATCC 3567): 16 µg/mL (≈ 40.3 µM); MIC (MRSA 562): 8 µg/mL (≈ 20.1 µM); MIC (S.epidermis St 358): 8 µg/mL (≈ 20.1 µM)
5 | CCC(=O)NC[C@H]1CN(c2cc(F)c(N3CC[Si](C)(C)CC3)c(F)c2)C(=O)O1 [NDS-10056, (S)—N-((3-(4-(4,4-dimethyl-1,4-azasilinan-1-yl)-3,5-difluorophenyl)-2-oxooxazolidin-5-yl)methyl)propionamide] | 32 (≈ 77.8 µM) | 32 (≈ 77.8 µM) | 8 (≈ 19.4 µM) | 16 (≈ 38.9 µM) | 32 (≈ 77.8 µM) | > 32 | 32 (≈ 77.8 µM) | 8 (≈ 19.4 µM) | 32 (≈ 77.8 µM) | 16 (≈ 38.9 µM) | 8 (≈ 19.4 µM) | 16 (≈ 38.9 µM) | > 32 | 16 (≈ 38.9 µM) | 32 (≈ 77.8 µM) | > 32 | 16 (≈ 38.9 µM) | 32 (≈ 77.8 µM) | > 32 | 8 (≈ 19.4 µM) | MIC (E.faecium ATCC 49224): 32 µg/mL (≈ 77.8 µM); MIC (E.faecalis ATCC 19433): 32 µg/mL (≈ 77.8 µM); MIC [5]: 50 µg/mL (≈ 121 µM); MIC (E.faecium ATCC 19434): 32 µg/mL (≈ 77.8 µM); MIC (S.aureus DB00026): > 32 µg/mL; MIC [6]: 16 µg/mL (≈ 38.9 µM); MIC (E.faecium 134 VRE): 32 µg/mL (≈ 77.8 µM); MIC (MRSE ATCC 35984): 32 µg/mL (≈ 77.8 µM); MIC [7]: > 32 µg/mL; MIC (E.faecium ATCC 3567): 32 µg/mL (≈ 77.8 µM); MIC (MRSA 562): 8 µg/mL (≈ 19.4 µM); MIC (S.epidermis St 358): 32 µg/mL (≈ 77.8 µM)
